The target in this test is T1, Sphingosine-1-phosphate receptor 1 (S1P1) (Mus musculus, UniProt O08530).
T1 construct: gene S1pr1; mouse S1pr1 coding region with C terminus linked to C-terminal firefly luciferase fragment (amino acids #394–550), S1P1–CLuc; with NLuc–β-arrestin2
Briefly: split luciferase β-arrestin2 recruitment (bioluminescence) in knock-in mouse embryonic fibroblasts. In kind it is cell-based.

Like-named read-outs stand apart in the source and are kept apart here.

T1 sequence (O08530 2-382): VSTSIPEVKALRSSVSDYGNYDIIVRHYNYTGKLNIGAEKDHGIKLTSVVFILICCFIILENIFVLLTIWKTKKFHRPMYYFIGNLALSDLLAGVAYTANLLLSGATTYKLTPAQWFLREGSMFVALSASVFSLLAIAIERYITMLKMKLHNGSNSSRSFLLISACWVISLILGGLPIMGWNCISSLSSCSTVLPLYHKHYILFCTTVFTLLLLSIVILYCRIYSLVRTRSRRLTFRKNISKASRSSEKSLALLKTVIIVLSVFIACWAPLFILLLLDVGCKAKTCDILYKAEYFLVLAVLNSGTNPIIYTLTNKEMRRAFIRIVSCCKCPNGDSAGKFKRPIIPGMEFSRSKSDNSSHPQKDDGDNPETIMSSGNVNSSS
T1 sequence (Q91YI4 whole entry partner, the tested form may be a part): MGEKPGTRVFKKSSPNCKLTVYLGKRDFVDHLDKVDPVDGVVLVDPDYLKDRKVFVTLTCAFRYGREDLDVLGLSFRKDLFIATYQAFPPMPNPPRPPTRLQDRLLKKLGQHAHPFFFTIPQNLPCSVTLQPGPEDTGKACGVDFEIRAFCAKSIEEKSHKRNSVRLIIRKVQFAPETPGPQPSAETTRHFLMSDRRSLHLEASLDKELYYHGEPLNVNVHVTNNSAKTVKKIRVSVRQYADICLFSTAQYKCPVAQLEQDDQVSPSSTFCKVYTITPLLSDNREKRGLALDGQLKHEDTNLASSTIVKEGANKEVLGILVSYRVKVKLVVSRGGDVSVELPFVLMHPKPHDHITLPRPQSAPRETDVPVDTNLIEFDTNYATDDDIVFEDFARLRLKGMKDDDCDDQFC

For orientation: EC50 means the concentration that produces a half-maximal response. The compound `CCCCCCCCCCCCCCC[C@@H](O)[C@@H](N)COP(=O)(O)O` [dihydro-S1P] returned an EC50 of 32.4 ± 0.5 nM.

For the compound `CCCCCCCCCCCCC/C=C/[C@@H](O)[C@@H](N)COP(=O)(O)O` [S1P], the EC50 (read-out: EC50) was 19.4 ± 0.8 nM.

These data come from article PMC5660082, “Bioluminescence imaging of G protein-coupled receptor activation in living mice” (Nature Communications, 2017).
